This assay deals with aphid Rhopalosiphum padi. Description: Assay of the phagodeterrent activity of the R—OH alcohols (two-leaf choice test on wheat leaves in Petri dishes). Type of assay: in vivo. Particulars: for Bonferroni test: Treated media (mean number of aphids on treated leaves): wheat leaves, recorded each hour for 8 hours; for Bonferroni test: significance of treated vs control media: treated vs 5% methanol control leaf. The procedure: Treatment of wheat leaves consisted of immersion of the same for 10 seconds in aqueous suspensions of 5% methanol of the different alcohols, some of which were also tested at different concentrations.
As a control, the same number of leaves was prepared by immersion in an aqueous solution of 5% methanol only.
Assay of the Phaqodeterrent Activity of the R—OH Alcohols:
Petri dishes 9 cm in diameter were used, into each of which two wheat leaves were arranged in parallel and separated from one another by a distance of approximately 4 cm; one leaf was treated with the suspension in 5% methanol of alcohol at various concentrations, and the other control leaf was washed with a solution of 5% methanol. Aphids of the species Rhopalosiphum padi were introduced to the dishes (one per dish) at equal distance from the two leaves.
For each test, 10 aphids were used and the same test was repeated at least 12 times, for at least 120 aphids. The number of aphids present on the treated leaves and on the control leaves was recorded each hour for a total of 8 hours.
The raw data relating to the food choices of the aphids were analysed using the Generalised Linear Model (GLM) procedure for repeated measurements (SPSS release 15.01) and reported in Table 1. The differences of the media between the number of aphids per leaf at each […] and the number of aphids on corresponding control leaves were analysed and corrected by using the Bonferroni test for multiple comparisons.

The mark [1] stands for this setting: alcohol 1.2 mM in 5% methanol aqueous suspension.
The mark [2] stands for this setting: alcohol 0.15 mM in 5% methanol aqueous suspension.
[3] abbreviates: alcohol 0.3 mM in 5% methanol aqueous suspension.
The mark [4] stands for this setting: alcohol 0.6 mM in 5% methanol aqueous suspension.

In the case of `CCCCCCCC/C=C\CCCCCCCCO` [Cis-9-octadecenol], the “Bonferroni test: Treated media (mean number of aphids on treated leaves)” value (shortened to “Bonferroni test: Treated media”) under setting [1] was found to be 2.281 ± 0.283. Also, the “Bonferroni test: significance of treated vs control media” value (alcohol 1.2 mM) was “** (** P < 0.01)”.
In the same order, the values of `CCCCCCCCCCCCCCCCCCCCO` [Eicosanol] are 3.042 ± 0.303 and “** (** P < 0.01)”.
Regarding `CCCCCCCCCCCCCCCCCO` [Heptadecanol], the “Bonferroni test: Treated media” value by setting is: under setting [2], 3.240 ± 0.410; under setting [3], 3.063 ± 0.532; under setting [4], 2.177 ± 0.298; under setting [1], 1.094 ± 0.294. Also, the “Bonferroni test: significance of treated vs control media” value by setting is: (alcohol 0.15 mM) “** (** P < 0.01)”; (alcohol 0.3 mM) “** (** P < 0.01)”; (alcohol 0.6 mM) “** (** P < 0.01)”; (alcohol 1.2 mM) “** (** P < 0.01)”.
For the molecule `CCCCCCCCCCCCCCCCO` [Hexadecanol], the “Bonferroni test: Treated media” value reads like this: under setting [2], 3.938 ± 0.429; under setting [3], 2.635 ± 0.323; under setting [4], 2.281 ± 0.371; under setting [1], 1.308 ± 0.315. In addition, the “Bonferroni test: significance of treated vs control media” value is, setting by setting: (alcohol 0.15 mM) “* (*P < 0.05)”; (alcohol 0.3 mM) “** (** P < 0.01)”; (alcohol 0.6 mM) “** (** P < 0.01)”; (alcohol 1.2 mM) “** (** P < 0.01)”.
`CCCCCCCCCCCCCCCCCCCO` [Nonadecanol]: the “Bonferroni test: Treated media” value under setting [1] came to 3.427 ± 0.391. The “Bonferroni test: significance of treated vs control media” value (alcohol 1.2 mM) is “* (*P < 0.05)”.
Consider `CCCCCCCCCCCCCCCO` [Pentadecanol], for which the “Bonferroni test: Treated media” value reads like this: (alcohol 0.075 mM in 5% methanol aqueous suspension) 3.073 ± 0.335; under setting [2], 3.406 ± 0.405; under setting [3], 2.271 ± 0.283; under setting [4], 2.385 ± 0.237; under setting [1], 1.365 ± 0.301. In addition, the “Bonferroni test: significance of treated vs control media” value is listed as “** (** P < 0.01)” (alcohol 0.075 mM); “** (** P < 0.01)” (alcohol 0.15 mM); “** (** P < 0.01)” (alcohol 0.3 mM); “** (** P < 0.01)” (alcohol 0.6 mM); “** (** P < 0.01)” (alcohol 1.2 mM).
For the molecule `CCCCCCCCCCCCCCO` [Tetradecanol], the “Bonferroni test: Treated media” value was determined as 2.375 ± 0.370 under setting [2], 3.271 ± 0.217 under setting [3], 2.365 ± 0.264 under setting [4] and 1.938 ± 0.322 under setting [1]. The “Bonferroni test: significance of treated vs control media” value was “** (** P < 0.01)” (alcohol 0.15 mM), “** (** P < 0.01)” (alcohol 0.3 mM), “** (** P < 0.01)” (alcohol 0.6 mM) and “** (** P < 0.01)” (alcohol 1.2 mM).
With Octadecenol, under setting [1], the “Bonferroni test: Treated media” value is on record as 2.469 ± 0.333. Also, the “Bonferroni test: significance of treated vs control media” value (alcohol 1.2 mM) was “** (** P < 0.01)”.

Values taken from US9226509B2, “Phagodeterrent compounds of fungal origin” (Consiglio Nazionale Delle Ricerche, priority 2011, dated 2016).
